According to US20160040251A1, “BIOMARKERS FOR THE IDENTIFICATION OF CHEMOSENSITIVITY” (PHARMACYCLICS, LLC, priority 2013, published 2016):

How the values were obtained:
[1] = tested on: breast cancer cell lines (BCLs); experiment: MTS cell viability assay in breast cancer cell lines; format: cell-based, human; conditions: for drug-response profiles of BCLs (high- or low-dose sensitive) versus abexinostat profiles: other HDACi compounds; for drug-response profiles of BCLs (high- or low-dose sensitive) versus abexinostat profiles / IC50: 72 h; for IC50: Homo sapiens, 72 h treatment, MTS
Experimental: A large series of cell lines (16 BCLs) were exposed to increasing concentrations (150 nM-2.5 μM) of the abexinostat, for 72 hours. These series represent all the molecular diversity observed in breast cancers.
Cell lines. A total of 16 breast cancer cell lines (BCLs) were used for the study. HCC1500, HCC1937, HCC1954, Hs 578T, MCF7, MDA-MB-134, MDA-MB-231, MDA-MB-361, MDA-MB-436, […] were obtained from American type culture collection (http://www.atcc.org/). SUM149 and SUM159 were obtained from Dr S.
Ethier's (Karmanos Cancer Center, Detroit, Mich., USA). S68 was obtained from Dr V. Castros (University de Rennes, France) and Br-Ca-MZ-01 from Dr V. Möbus (University of Ulm, Germany). All BCLs tested were derived from carcinomas. BCLs were grown using the recommended culture conditions (Neve et al, Cancer Cell 2006).
Drugs. BCLs were continuously treated for 72h in adherent conditions with Histone Deacetylase Inhibitors (HDACi): abexinostat, SAHA and valproic acid. For experiments abexinostat was prepared in a 23,1 mM stock solution, SAHA in a 0.5M stock solution, in Dimethyl Sulfoxide (DMSO) and stored at −20° C. Valproic acid was prepared in a 1M stock solution in Phosphate Buffered Saline (PBS) and stored at 4° C. For experiments, cells were treated with respective IC50s. DMSO or PBS were used as vehicle control (C<0.1%).
Cell viability. Inhibitory Concentrations 50 (IC50s) were evaluated using 3-(4,5-dimethylthiazol-2-yl)-5-(3-carboxymethoxyphenyl)-2-(4-sulfophenyl)-2H-tetrazolium (MTS) assay. BCLs were plated in adherent condition in 96-well plates at 5,000 cells per well; except for SUM159 plated at 1,000 cells per well. After 24 h, treatment with serial dilutions of HDACi was started. The effect of treatment on cell viability was estimated after 72 h by addition of 100 μL MTS solution (5 mg/mL in PBS) in each well. Cells were then incubated for 1 h at 37° C. Absorbance was measured at 540 nm in a fluorescence plate reader.

[2] = tested on: ALDEFLUOR-positive CSC population of PDXs CRCM226X, CRCM392X, CRCM389X; experiment: ALDEFLUOR assay on residual PDX tumors; format: in vivo, NOD/SCID mice; conditions: after three weeks of treatment
Experimental: (§1) Animal models Cells from these PDXs were transplanted orthotopically into fat pads of NOD/SCID mice without cultivation in vitro. Single cancer cells (1,000,000 cells CRCM226X and CRCM389X, 125,000 cells CRCM392X) are injected into fat pads of NOD/SCID mice and tumor growth are monitored. When the tumor size was approximately 150 mm^3, treatment is started with abexinostat (i.p, 12.5 mg/Kg, twice a day, 5 out of 7 days for three weeks) or docetaxel (10 mg/kg weekly for three weeks) or placebo.
(§2) Six mice were injected for each PDX and for each group. After 1, 2 and 3 weeks of treatment, two mice from each group were sacrificed according to ethic statements. Tumors were dissociated and cells were analyzed for the ALDEFLUOR phenotype and tumorsphere formation capacity. Cells from 3-week treated mice were reimplanted into secondary NOD/SCID mice with injection of 1,000 cells for each treated tumor.
ALDEFLUOR assay The ALDEFLUOR kit (Stem Cell Technologies) was used to isolate the population with high aldehyde dehydrogenase (ALDH) enzymatic activity using an LSR2 cytometer as previously described (Ginestier et al, Cell Stem Cell, 2007). For BCLs cultivated in adherent condition, ALDEFLUOR-positive populations were evaluated after 72-hour treatment with HDACi (IC50s) or vehicle. Primary human xenografts CRCM226X, CRCM389X and CRCM392X were harvested on the 3rd week of treatment with abexinostat, docetaxel or placebo, dissociated and stained for ALDEFLUOR analysis. To eliminate cells of mouse origin from the xenotransplanted tumors, staining with an anti-H2K^d biotin antibody (1/200; BD Biosciences) followed by staining with a secondary antibody labeled with streptavidin e450 (1/200; eBioscience) was used.

[3] = tested on: patient-derived xenografts CRCM226X, CRCM392X, CRCM389X; experiment: Reimplantation of cells from treated PDXs into secondary mice (tumorigenicity); format: in vivo, NOD/SCID mice
Experimental: as §2
Tumor growth was compared with that of placebo-treated controls. An inhibition of the CRCM226X (Xist^low) PDX growth after abexinostat and docetaxel treatment was observed. […] After three weeks of treatment, the animals were sacrificed and the proportion of ALDEFLUOR-positive CSCs was measured in each residual tumor (FIG. 6B). All PDX models presented an increase in the ALDEFLUOR-positive population isolated from docetaxel-treated tumors compared to the untreated control. […] Tumorigenicity is directly related to the presence of CSCs and this assay gives an estimate of the proportion of residual tumorigenic CSCs. For each treatment condition (placebo, abexinostat, docetaxel), 1,000 cells isolated from treated-tumors were reimplanted.

[4] = tested on: patient-derived xenografts CRCM226X, CRCM392X, CRCM389X; experiment: Tumor growth of patient-derived xenografts under treatment; format: in vivo, NOD/SCID mice; conditions: abexinostat i.p. 12.5 mg/Kg twice a day 5 of 7 days, docetaxel 10 mg/kg weekly, three weeks
From the text: To confirm the impact of abexinostat treatment on the CSC population from breast cancers with low XIST expression, three different patient-derived xenografts (PDXs) with distinct Xist expression level (CRCM226X, Xist^low; CRCM392X, Xist^med; CRCM389X, Xist^high) were utilized.
as §1, §2

[5] = CRCM226X (Xist low), 1,000 cells from 3-week treated tumors reimplanted
[6] = CRCM389X (Xist high), 1,000 cells from 3-week treated tumors reimplanted
[7] = CRCM392X (Xist med), 1,000 cells from 3-week treated tumors reimplanted

| Compound | drug-response profiles of BCLs (high- or low-dose sensitive) versus abexinostat profiles [1] | ALDEFLUOR-positive population versus untreated control ([2]; CRCM226X (Xist low)) | ALDEFLUOR-positive population versus untreated control ([2]; CRCM389X (Xist high)) | ALDEFLUOR-positive population versus untreated control ([2]; CRCM392X (Xist med)) | tumor regrowth after reimplantation versus placebo-treated [3, 5] | tumor regrowth after reimplantation versus placebo-treated [3, 6] | tumor regrowth after reimplantation versus placebo-treated [3, 7] | IC50 ([1]; nine BCLs sensitive to low-dose) | IC50 ([1]; seven BCLs sensitive to high-dose) | PDX tumor growth versus placebo ([4]; CRCM226X (Xist low)) | PDX tumor growth versus placebo ([4]; CRCM389X (Xist high)) | PDX tumor growth versus placebo ([4]; CRCM392X (Xist med)) | drug-response profile compared to abexinostat profile ([1]; conventional chemotherapeutic agent, BCLs) |
| --- | --- | --- | --- | --- | --- | --- | --- | --- | --- | --- | --- | --- | --- |
| O=C(CCCCCCC(=O)Nc1ccccc1)NO [SAHA, vorinostat] | confirmed | – | – | – | – | – | – | – | – | – | – | – | – |
| CCCC(CCC)C(=O)O [Valproic Acid, valproic acid] | confirmed | – | – | – | – | – | – | – | – | – | – | – | – |
| CN(C)Cc1c(C(=O)NCCOc2ccc(C(=O)NO)cc2)oc2ccccc12 [abexinostat] | – | two-fold decrease | increase | two-fold decrease | incapacity to regenerate a tumor | higher regrowth kinetic | delay in tumor regrowth | 170 to 460 nM | > 700 nM | inhibition | no or discrete effect | no or discrete effect | – |
| CC(=O)O[C@@]12CO[C@@H]1C[C@H](O)[C@@]1(C)C(=O)[C@H](O)C3=C(C)[C@@H](OC(=O)[C@H](O)[C@@H](NC(=O)OC(C)(C)C)c4ccccc4)C[C@@](O)([C@@H](OC(=O)c4ccccc4)[C@H]21)C3(C)C [docetaxel] | – | increase | increase | increase | tumor regrowth comparable to placebo-treated tumors | tumor regrowth comparable to placebo-treated tumors | tumor regrowth comparable to placebo-treated tumors | – | – | inhibition | no or discrete effect | no or discrete effect | totally distinct |
